Experimental data published in US20090118301A1, “Compositions and Methods for Treating Cancer” (Arbor Vita Corporation, priority 2007, published 2009).

Legend:
3Y1 pBlast-E6-16 cells [1] = experiment: cell proliferation assay; type: cell-based, rat; conditions: 40 μM; compared with 3Y1 pBlast E6-16 ΔPL and 3Y1 pBlast
Experimental: Compound 7291-0042 was further analyzed for its ability to block the development of other cancerous characteristics in cells by a cell proliferation assay. The three cell lines described in the Example 2 were seeded onto a 12-well plate, and allowed to adhere and grow to confluent (about 24 hours) in EMEM media with 10% FBS and non-essential amino acids. 100 μl of compound 7291-0042 at concentrations 0 μM, 20 μM, 40 μM, and 80 μM was applied to the cells. The cells were measured at 24, 48, 72 and 96 hours after addition of the compound.

C33a cells [2] = experiment: TUNEL apoptosis assay, C33A; type: cell-based; conditions: 120 M (so in the source), 48 hours, flow cytometry
Experimental: (§1) To determine whether the compound 7291-0042 induces apoptosis in HPV-positive cervical cancer cell lines, HeLa cells and the HPV-negative cell line C33A were used. HeLa and C33A cells were seeded at 1-2×10^6 in 10-cm dishes and allowed to adhere and grow to 80-90% confluency. Compound 7291-0042 at a concentration of 60 μM, 80 μM, 100 μM, 120 μM, or DMSO was added to the cells 24 hours after plating and incubated for 48 hours. TUNEL assay was performed for the specific quantitation of apoptotic cells within a cell population using the DeadEnd Fluorometric TUNEL System from Promega (Madison, Wis.). Briefly, the cells were harvested by trypsinization and washed in PBS. Cells were then fixed in 4% formalin and incubated in buffer containing nucleotides and rTdT enzyme for 1 hour at 37° C. After terminating the reaction by adding EDTA, cells were washed with PBS and permeabilized with Triton X-100 and propidium iodide was added to stain all the cells. Cells were then analyzed by flow cytometery. Apoptosis signal was quantified by measuring green fluorescence of fluorescein-12-dUTP at 520±20 nm and red fluorescence of propidium iodide at >620 nm.

[3] = tested on: p53 tumor suppressor protein; experiment: p53 protein expression by immunocytochemistry in HeLa cells; type: cell-based; conditions: 80-120 μM, 24 hours, vs DMSO control
Experimental: To determine whether the compound 7291-0042 has an effect on p53 protein expression, cervical cancer cell line HeLa was used. HeLa cells were seeded, allowed to adhere and grown to 0.5×10^6 cells per well. 1 ml of compound 7291-0042 at a concentration of 80 μM, 100 μM, 120 μM, or DMSO was added to the cells 24 hours after plating and incubated for 24 hours. Immunocytochemistry with anti-p53 monoclonal antibody was performed to determine the relative amounts of the p53 protein present in the different cell samples.

HeLa cells [4] = experiment: TUNEL apoptosis assay, HeLa; type: cell-based; conditions: 120 M (so in the source), 48 hours, flow cytometry
Experimental: as §1

SiHa cells = experiment: WST-1 cytotoxicity assay, SiHa; type: cell-based; conditions: 60 μM, HPV-positive cervical cancer cell line
Experimental: (§2) To determine the cytotoxicity of the compound 7291-0042, drug toxicity studies were performed in HPV-positive (E6 transformed) cervical cancer cell lines SiHa and HeLa and HPV-negative cervical cancer cell line […]. […] and SiHa cells were seeded onto a 12-well plate, allowed to adhere and grown to 10,000 cells per well. HeLa cells were seeded, allowed to adhere and grown to 5,000 cells per well. 100 μl of compound 7291-0042 at a concentration of 60 μM or DMSO was added to the cells 24 hours after plating. Cytotoxicity of the cells was assessed by the WST-1 calorimetric assay. In brief, the calorimetric assay is based on the cleavage of the tetrazolium salt WST-1 to a formazan-class dye by mitochondrial succinate-tetrazolium reductase in viable cells. As the cells proliferate, more WST-1 is converted to the formazan product. The quantity of formazan dye is directly related to the number of metabolically active cells, and can be quantified by measuring the absorbance at 420-480 nm (Amax 450 nm) in a multiwell plate reader.

3Y1 pBlast-E6-16 cells [5] = experiment: cell migration assay (96-well filter plate); type: cell-based, rat; conditions: 40 μM, 24 hours, OD560; compared with 3Y1 pBlast E6-16 ΔPL cells
Experimental: The effect of compound 7291-0042 on the rate of cell migration and proliferation was determined on three different cell lines, 3Y1 pBlast, 3Y1 pBlast-E6-16 and 3Y1 pBlast E6-16 ΔPL.
Plasmid constructs of HPV E6-16 (wild type) and HPV E6-16 ΔPL were generated using the vector pBlast (InvivoGen, Toulouse, France). Recombinant plasmids were generated by recombinant DNA cloning methods known in the art.
These constructs were transfected into rat 3Y1 primary cells using the LipofectAMINE™ 2000 Reagent (Invitrogen Cat#11668-027) and accompanying protocol. pBlast without insert was transfected as a negative control. Cells were incubated at 37° in RPMI media with non-essential amino acids, 10% FBS, and 1 ug/mL […] until confluent (about 4 days).
Each of the three transfected cell lines were seeded onto a 96-well filter plate with a feeder tray and lid in RPMI media with a gradient of 0.5% to 10% FBS and non-essential amino acids. Three different treatments were applied to the cell lines. The cells were treated with either 40 μM or 60 μM of the compound 7291-0042, or DMSO. […] The undersides of the filters were left uncoated. […] Cell migration through the membrane was quantified by staining the cells that attach to the lower side of the membrane with a colorometric dye at OD560 after 24 hours with a microplate reader.

C33a cells [6] = experiment: WST-1 cytotoxicity assay, C33a; type: cell-based; conditions: 60 μM, HPV-negative cervical cancer cell line
Experimental: as §2

E6 protein (HPV18-E6) = experiment: E6 oncoprotein expression by Western blot in HeLa cells; type: cell-based; conditions: 60-120 μM, 24 hours, vs DMSO control and untreated cells
Experimental: To determine whether the compound 7291-0042 has an effect on E6 protein expression, cervical cancer cell line HeLa was used. HeLa cells were seeded, allowed to adhere and grown to 0.5×10^6 cells per well. Compound 7291-0042 at a concentration of 60 μM, 80 μM, 100 μM, 120 μM, or DMSO was added to the cells 24 hours after plating and incubated for 24 hours. Cells that were untreated served as an additional control. Western blot was performed to determine the relative amounts of the E6 protein present in the different samples. Briefly, the cells were homogenized in a lysate buffer and the protein samples were separated using SDS-PAGE and transferred to a membrane for detection. The membrane was incubated with an anti-HPV18-E6 antibody, labeled with a secondary antibody-enzyme conjugate and detected. To ensure that the amount of protein loaded for each sample was similar, the membrane was stripped and labeled with an antibody that recognizes a protein encoding a housekeeping gene. For this experiment, an antibody against glyceraldehyde-3-phosphate dehydrogenase (GAPDH) was used.

HeLa cells [7] = experiment: WST-1 cytotoxicity assay, HeLa; type: cell-based; conditions: 60 μM, HPV-positive cervical cancer cell line
Experimental: as §2

[8] = biological target: T1, MAGI-1 PDZ domain 1 (interaction with HPV E6 protein) (Homo sapiens, UniProt Q96QZ7); experiment: matrix/array PDZ/PL competition assay, titration, Magi1 d1; type: binding; conditions: compared with the other PDZ domains and compounds of Table 1
T1 construct: MAGI-1 PDZ domain 1 was used as a target for rational drug design
T1 sequence (Q96QZ7 472-554 limits assumed): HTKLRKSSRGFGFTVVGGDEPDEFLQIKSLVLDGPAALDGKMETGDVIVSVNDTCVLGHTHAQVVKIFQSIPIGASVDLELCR
Experimental: The best hits from in silico screening were subject to screening in a matrix/array competition assay format, i.e., assays where docking of ligands to solid phase PDZ domain in fusion proteins was assessed in the presence and absence of the small molecule competitor as described elsewhere. The compounds were screened for inhibition of the PDZ/PL interactions.
The small molecules were considered as hits based on the OD450 readout of the assay. The best of the hits in this analysis were then subject to titration binding studies, i.e., titration of compounds in the same competition assay to estimate the IC50 value.

## CCc1cccc2c(C(c3ccccc3OCC(=O)O)c3c[nH]c4c(CC)cccc34)c[nH]c12 [7291-0042]
3Y1 pBlast-E6-16 cells [1]
  rate of cell proliferation: restored baseline rate of cell proliferation
C33a cells [2]
  apoptotic cells, C33A: 4%
[3]
  amount of p53 tumor suppressor protein: increased
HeLa cells [4]
  apoptotic cells, HeLa: 20%
SiHa cells
  cytotoxicity, SiHa cells: selectively killed
3Y1 pBlast-E6-16 cells [5]
  rate of cell migration: restored baseline cell migration
C33a cells [6]
  cytotoxicity, C33a cells: remained viable
E6 protein (HPV18-E6)
  amount of E6 onco protein: decreased
HeLa cells [7]
  cytotoxicity, HeLa cells: selectively killed
[8]
  specificity of disruption of the interaction between HPV E6 protein and MAGI-1 PDZ1: greatest specificity
